Experiments:
[1] = Metabolite identification in dog liver microsomes; format: in vitro ADME; settings: 7–16 10 µM, liver microsomes 1 mg/mL, NADPH, 37 °C, 60 min
Protocol: (§1) In accordance with our previous methods, 7–16 (10 µM) was incubated with mouse, rat, dog, monkey, and human liver microsome proteins (1 mg/mL) in 100 mM sodium phosphate buffer (pH 7.4) containing 10 mM magnesium chloride and 2 mM NADPH at 37 °C for 60 min. All samples were prepared in duplicates. The reactions were terminated by adding three times the volume of ice-cold acetonitrile (600 µL) and stored at −20 °C until analysis. Control samples without NADPH and 0-time point samples were included. As a positive control, testosterone (10 µM), which was metabolized to produce the hydroxylation metabolite, was used as a substrate to confirm the activity of the incubation system.
(§2) After pre-treatments, the samples were analyzed by an Acquity UPLC system coupled with a diode array detector (Waters Corporation, Milford, MA, USA) and Q Exactive HRMS (Thermo Electron Corporation, Waltham, MA, USA) (UPLC–UV-Q Exactive HRMS). Samples were separated on an Agilent XDB C18 column (150 × 2.1 mm i.d. 3.5 μm, Agilent Corporation, Santa Clara, CA, USA) at 40 °C by gradient elution with water and acetonitrile containing 0.1% formic acid. The flow rate was 0.40 mL/min. The ultraviolet (UV) detection wavelength was 286 nm. Q Exactive HRMS were operated at positive ion mode (3.5 kV) using a heating electrospray ionization source. Mass calibration was required to be performed before conducting experiments so as to achieve the best mass accuracy and mass calibration should be performed every five days. The metabolites were detected by full MS/dd-MS^2 analysis from m/z 100 to m/z 1000. The resolution of the first-class scan and second-class scan was 70,000 and 17,500, respectively. Thermo Compound Discover software was used to identify expected and unknown metabolites, and we finally proposed the 7–16 metabolic pathways based on the deduced metabolites and relevant drug biotransformation knowledge.

[2] = Excretion and metabolite identification in bile duct cannulated (BDC) rats; format: in vivo, Sprague-Dawley rats; settings: single oral dose [14C]7–16 3 mg/100 µCi/kg; for Dose% Bile, female: female BDC rats; for Dose% Bile, male: male BDC rats
Protocol: (§3) In the urine and feces excretion experiment, six rats (3 females and 3 males) were administered a single oral dose of [^14C]7–16 at 3 mg/100 µCi/kg. Urine, feces and cage washing/cleaning solution samples were collected from 0 to 168 h following drug administration at the following time intervals: 0–8, 8–24 h (0–24 h for feces), 24–48, 48–72, 72–96, 96–120, 120–144, and 144–168 h. In the biliary excretion experiment, 8 rats using a bile duct cannula (BDC) (4 females and 4 males) were administered a single oral dose of [^14C]7–16 at 3 mg/100 µCi/kg. Bile, urine, feces, and cage washing solution were collected from before and 0–72 h after oral administration at the following time intervals: 0–4, 4–8 (urine 0–8), 8–24 (feces 0–24), 24–48, and 48–72 h. All samples were collected and refrigerated at −20 °C until determination of the radioactive concentrations by liquid scintillation counter (Perkin Elmer Corporation, Waltham, MA, USA). Urine, feces, and bile samples at each time period were mixed by equal percentages of either volume or weight. After the mixed samples were treated, the radio-profiles and metabolite identification in the bile, urine, and feces samples were carried out by LC-RAM and UPLC-Q Exactive HRMS, and the TRA% of each metabolite in plasma and the percentage of dose (dose%) of each compound in urine, feces, and bile samples were calculated.

[3] = Metabolite identification in human liver microsomes; format: in vitro ADME; settings: 7–16 10 µM, liver microsomes 1 mg/mL, NADPH, 37 °C, 60 min
Protocol: as §1, §2

[4] = Metabolite identification in rat plasma after oral [14C]7–16; format: in vivo, Sprague-Dawley rats; settings: single oral dose [14C]7–16 3 mg/100 µCi/kg, pooled plasma 0.25-24 h; for TRA% Plasma, female: female rats; for TRA% Plasma, male: male rats
Protocol: The rats received a single oral dose of [^14C]7–16 at 3 mg/100 µCi/kg (3 females and 3 males for each time point). At 0.25, 1, 6, and 24 h after administration, about 0.3 mL of blood was collected into a collection vessel containing K2-EDTA anticoagulant by cardiac puncture, and the plasma samples were acquired after centrifugation at 8000 rpm for 10 min at 4 °C. All samples were stored at −20 °C until analysis. The rat plasma samples at each time point were mixed in accordance with the area under the concentration curve contribution at corresponding time intervals. After the pooled plasma samples were pre-treated, the radio-profiles of plasma samples were detected using Shimadzu LC coupled with a radioactivity monitor (LC-RAM, Scintillation and Luminescence Counter Technology, Perkin Elmer Corporation, Waltham, MA, USA), and the metabolites were identified by UPLC-QE HRMS (Thermo Electron Corporation, Waltham, MA, USA). The percentage of each metabolite based on the total radiation intensity (TRA%) in plasma samples was calculated. The structures of metabolites were identified by the same method used for metabolite identification in the liver microsomes of different species.

[5] = Excretion and metabolite identification in urine and feces of intact rats; format: in vivo, Sprague-Dawley rats; settings: for Dose% Feces, female / Dose% Urine, female: female rats; for Dose% Feces, female / Dose% Urine, female / Dose% Feces, male / Dose% Urine, male: single oral dose [14C]7–16 3 mg/100 µCi/kg; for Dose% Feces, male / Dose% Urine, male: male rats
Protocol: as §3

[6] = Metabolite identification in mouse liver microsomes; format: in vitro ADME; settings: 7–16 10 µM, liver microsomes 1 mg/mL, NADPH, 37 °C, 60 min
Protocol: as §1, §2

[7] = Metabolite identification in rat liver microsomes; format: in vitro ADME; settings: 7–16 10 µM, liver microsomes 1 mg/mL, NADPH, 37 °C, 60 min
Protocol: as §1, §2

[8] = Metabolite identification in monkey liver microsomes; format: in vitro ADME; settings: 7–16 10 µM, liver microsomes 1 mg/mL, NADPH, 37 °C, 60 min
Protocol: as §1, §2

Relative Abundance, UV Area% Dog [1] [%] | Dose% Bile, female [2] [%] | Dose% Bile, male [2] [%] | Relative Abundance, UV Area% Human [3] [%] | TRA% Plasma, female [4] [%] | TRA% Plasma, male [4] [%] | Dose% Feces, female [5] [%] | Dose% Urine, female [5] [%] | Dose% Feces, male [5] [%] | Dose% Urine, male [5] [%] | Relative Abundance, UV Area% Mouse [6] [%] | Relative Abundance, UV Area% Rat [7] [%] | Relative Abundance, UV Area% Monkey [8] [%] | recovery of radioactivity within the first 24 h, percent of dose ([5]; intact rats, first 24 h post-administration) [%] | SMILES
1.73 | 0.41 | 0.83 | 0.60 | 1.11 | 2.50 | 4.97 | 4.34 | 5.42 | 5.75 | 0.61 | 1.10 | 2.52 | – | CN1CCC(N(Cc2ccc(F)cn2)C(=O)NCc2ccc(O)cc2)CC1 [Compound M372]
0.47 | 2.71 | 3.83 | 0.78 | 1.40 | 3.70 | 21.1 | 2.66 | 24.2 | 5.77 | 0.39 | 1.29 | 1.73 | – | O=C(NCc1ccc(OCC(F)(F)F)cc1)N(Cc1ccc(F)cn1)C1CCNCC1 [Compound M440]
– | 0.76 | 0.53 | – | 81.9 | 57.3 | 16.8 | 23.6 | 5.29 | 9.79 | – | – | – | 76.8 | CN1CCC(N(Cc2ccc(F)cn2)C(=O)N[14CH2]c2ccc(OCC(F)(F)F)cc2)CC1 [[^14C]7–16]

— publication PMC11124362, “Metabolism, Disposition, Excretion, and Potential Transporter Inhibition of 7–16, an Improving 5-HT2A Receptor Antagonist and Inverse Agonist for Parkinson’s Disease” (Molecules, 2024)
